Results taken from ChEMBL document CHEMBL5212743, “Selectivity Literature for EUbOPEN Chemogenomics Library wave 3” (2023).

Experiments:
[1] = target: T1, Bromodomain-containing protein 7 (Homo sapiens) (UniProt Q9NPI1); assay: Selectivity interaction (Bromodomain panel (DSF assay)) EUB0000004c BRD7
T1 sequence (whole entry): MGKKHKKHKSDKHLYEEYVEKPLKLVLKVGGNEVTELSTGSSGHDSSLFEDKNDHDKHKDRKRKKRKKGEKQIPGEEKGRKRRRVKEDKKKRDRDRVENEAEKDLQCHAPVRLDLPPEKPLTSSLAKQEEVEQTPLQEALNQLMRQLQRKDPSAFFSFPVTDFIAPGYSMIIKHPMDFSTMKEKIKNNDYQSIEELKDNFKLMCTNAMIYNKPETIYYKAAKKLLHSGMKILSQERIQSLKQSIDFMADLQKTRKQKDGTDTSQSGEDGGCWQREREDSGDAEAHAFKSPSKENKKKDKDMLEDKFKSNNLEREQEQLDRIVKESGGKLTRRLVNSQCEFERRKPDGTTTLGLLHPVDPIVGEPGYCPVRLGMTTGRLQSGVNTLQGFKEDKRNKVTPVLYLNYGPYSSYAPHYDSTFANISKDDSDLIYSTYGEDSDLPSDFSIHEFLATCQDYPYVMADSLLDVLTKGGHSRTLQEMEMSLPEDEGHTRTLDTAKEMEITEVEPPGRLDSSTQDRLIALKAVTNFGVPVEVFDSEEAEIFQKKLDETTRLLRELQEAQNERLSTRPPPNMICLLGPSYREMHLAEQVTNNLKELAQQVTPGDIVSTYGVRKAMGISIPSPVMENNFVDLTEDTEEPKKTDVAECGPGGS

[2] = target: Bromodomain-containing protein 9 (Homo sapiens) (UniProt Q9H8M2); assay: Selectivity interaction (Bromodomain panel (DSF assay)) EUB0000004c BRD9
Sequence of Bromodomain-containing protein 9 (Homo sapiens) (Q9H8M2 whole entry): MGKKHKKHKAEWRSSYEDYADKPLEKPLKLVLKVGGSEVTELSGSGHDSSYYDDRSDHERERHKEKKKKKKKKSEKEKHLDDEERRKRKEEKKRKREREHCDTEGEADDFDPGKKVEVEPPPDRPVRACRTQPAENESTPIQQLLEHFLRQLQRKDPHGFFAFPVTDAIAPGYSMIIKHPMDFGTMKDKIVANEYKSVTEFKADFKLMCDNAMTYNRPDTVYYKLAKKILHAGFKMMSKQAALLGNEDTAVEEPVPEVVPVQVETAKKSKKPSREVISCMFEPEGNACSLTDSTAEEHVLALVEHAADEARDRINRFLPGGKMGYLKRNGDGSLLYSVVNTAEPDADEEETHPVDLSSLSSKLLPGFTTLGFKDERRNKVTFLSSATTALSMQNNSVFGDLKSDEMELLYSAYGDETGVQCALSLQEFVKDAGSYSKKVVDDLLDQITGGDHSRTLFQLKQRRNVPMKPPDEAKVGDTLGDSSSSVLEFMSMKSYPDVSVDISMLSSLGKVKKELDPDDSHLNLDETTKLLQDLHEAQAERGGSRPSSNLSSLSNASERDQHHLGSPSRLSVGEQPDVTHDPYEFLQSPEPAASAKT

[3] = target: T2, Chromatin remodeling regulator CECR2 (Homo sapiens, UniProt Q9BXF3); assay: Selectivity interaction (Bromodomain panel (DSF assay)) EUB0000004c CECR2
T2 sequence (Q9BXF3 whole entry, looked up): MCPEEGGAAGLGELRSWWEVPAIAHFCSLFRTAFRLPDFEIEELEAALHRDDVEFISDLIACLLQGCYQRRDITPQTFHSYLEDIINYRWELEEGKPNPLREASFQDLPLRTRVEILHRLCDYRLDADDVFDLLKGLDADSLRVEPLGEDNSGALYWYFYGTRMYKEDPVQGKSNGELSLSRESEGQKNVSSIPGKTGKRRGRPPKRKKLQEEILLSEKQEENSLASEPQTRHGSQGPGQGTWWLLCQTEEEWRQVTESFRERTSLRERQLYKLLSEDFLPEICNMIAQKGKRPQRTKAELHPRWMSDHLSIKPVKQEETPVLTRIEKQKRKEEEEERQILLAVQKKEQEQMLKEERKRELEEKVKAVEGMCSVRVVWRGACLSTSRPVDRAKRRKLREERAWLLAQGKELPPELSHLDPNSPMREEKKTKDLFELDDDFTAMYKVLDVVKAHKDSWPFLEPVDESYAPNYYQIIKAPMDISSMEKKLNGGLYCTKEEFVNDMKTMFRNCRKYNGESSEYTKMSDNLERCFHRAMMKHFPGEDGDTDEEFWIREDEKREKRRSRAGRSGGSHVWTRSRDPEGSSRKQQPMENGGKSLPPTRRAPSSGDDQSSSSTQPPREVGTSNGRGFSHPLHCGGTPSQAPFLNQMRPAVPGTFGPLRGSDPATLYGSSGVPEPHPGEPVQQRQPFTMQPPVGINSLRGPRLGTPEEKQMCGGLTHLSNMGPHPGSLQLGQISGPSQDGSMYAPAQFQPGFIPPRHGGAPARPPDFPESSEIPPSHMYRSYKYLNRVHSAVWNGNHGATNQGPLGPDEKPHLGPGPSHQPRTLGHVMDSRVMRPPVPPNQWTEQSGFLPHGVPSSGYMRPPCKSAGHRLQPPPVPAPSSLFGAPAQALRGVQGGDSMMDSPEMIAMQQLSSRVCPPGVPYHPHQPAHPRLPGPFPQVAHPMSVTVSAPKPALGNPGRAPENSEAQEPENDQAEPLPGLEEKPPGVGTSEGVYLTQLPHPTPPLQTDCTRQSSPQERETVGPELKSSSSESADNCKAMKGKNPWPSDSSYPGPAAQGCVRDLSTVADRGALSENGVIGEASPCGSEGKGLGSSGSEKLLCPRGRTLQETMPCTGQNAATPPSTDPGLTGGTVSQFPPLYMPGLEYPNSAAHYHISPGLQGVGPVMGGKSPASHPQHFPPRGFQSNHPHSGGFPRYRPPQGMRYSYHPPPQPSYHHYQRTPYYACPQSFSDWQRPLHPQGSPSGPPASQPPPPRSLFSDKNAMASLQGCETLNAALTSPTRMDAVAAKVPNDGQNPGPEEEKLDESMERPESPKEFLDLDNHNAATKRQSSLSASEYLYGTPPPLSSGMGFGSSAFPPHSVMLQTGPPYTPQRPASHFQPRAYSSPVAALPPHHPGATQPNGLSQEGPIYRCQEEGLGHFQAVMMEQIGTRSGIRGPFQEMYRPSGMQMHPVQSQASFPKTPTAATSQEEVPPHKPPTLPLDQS

[4] = target: T2, Chromatin remodeling regulator CECR2; assay: Selectivity interaction (Bromoscan (DiscoverX, BromoKdELECT)) EUB0000004c CECR2; conditions: at 10 µM
CREB-binding protein = CREB-binding protein (Homo sapiens, UniProt Q92793); assay: Selectivity interaction (Bromoscan (DiscoverX, BromoKdELECT)) EUB0000004c CREBBP; conditions: at 10 µM
[5] = target: Transcription initiation factor TFIID subunit 1 (Homo sapiens, UniProt P21675); assay: Selectivity interaction (Bromoscan (DiscoverX, BromoKdELECT)) EUB0000004c TAF1; conditions: at 10 µM
[6] = target: T3, Mitogen-activated protein kinase kinase kinase 19 (Homo sapiens) (UniProt Q56UN5); assay: Selectivity interaction (KinomeScan (DiscoverX)) EUB0000701a MAP3K19; conditions: at 1 µM
T3 sequence (whole entry): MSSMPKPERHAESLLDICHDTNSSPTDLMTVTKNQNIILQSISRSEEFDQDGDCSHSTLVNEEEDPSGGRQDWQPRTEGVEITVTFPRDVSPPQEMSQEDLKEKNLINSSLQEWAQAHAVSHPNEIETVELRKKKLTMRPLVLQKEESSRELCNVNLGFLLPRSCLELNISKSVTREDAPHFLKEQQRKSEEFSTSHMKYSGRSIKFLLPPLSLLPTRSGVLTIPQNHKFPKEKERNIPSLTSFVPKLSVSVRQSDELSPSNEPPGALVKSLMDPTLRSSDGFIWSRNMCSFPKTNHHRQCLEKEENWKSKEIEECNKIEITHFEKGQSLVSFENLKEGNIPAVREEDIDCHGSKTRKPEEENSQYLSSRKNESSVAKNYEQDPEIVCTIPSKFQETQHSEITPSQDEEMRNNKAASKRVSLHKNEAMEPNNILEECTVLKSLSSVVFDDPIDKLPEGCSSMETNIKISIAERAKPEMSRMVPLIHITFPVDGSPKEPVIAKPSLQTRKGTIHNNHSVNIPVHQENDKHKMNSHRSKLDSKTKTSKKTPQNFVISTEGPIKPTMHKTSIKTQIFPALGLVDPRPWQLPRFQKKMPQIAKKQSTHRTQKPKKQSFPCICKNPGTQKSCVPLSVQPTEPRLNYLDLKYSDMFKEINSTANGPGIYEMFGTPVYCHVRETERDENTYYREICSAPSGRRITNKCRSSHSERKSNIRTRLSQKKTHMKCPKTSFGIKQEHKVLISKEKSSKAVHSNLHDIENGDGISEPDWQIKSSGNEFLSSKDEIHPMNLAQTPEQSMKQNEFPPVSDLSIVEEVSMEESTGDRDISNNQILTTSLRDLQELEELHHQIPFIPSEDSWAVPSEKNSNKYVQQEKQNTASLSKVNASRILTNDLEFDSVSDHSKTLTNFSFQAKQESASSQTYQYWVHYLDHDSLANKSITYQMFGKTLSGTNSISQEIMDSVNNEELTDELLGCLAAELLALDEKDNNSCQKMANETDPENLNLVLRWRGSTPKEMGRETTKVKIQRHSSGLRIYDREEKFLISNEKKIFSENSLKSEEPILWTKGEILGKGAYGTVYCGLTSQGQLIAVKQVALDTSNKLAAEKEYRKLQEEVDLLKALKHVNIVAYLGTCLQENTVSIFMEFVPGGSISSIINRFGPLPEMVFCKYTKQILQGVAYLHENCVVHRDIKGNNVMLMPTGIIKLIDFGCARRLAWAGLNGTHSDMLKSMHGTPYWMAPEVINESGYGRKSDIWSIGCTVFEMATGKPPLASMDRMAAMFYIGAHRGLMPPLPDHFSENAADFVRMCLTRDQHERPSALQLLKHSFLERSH

[7] = target: T4, Dual specificity mitogen-activated protein kinase kinase 5 (Homo sapiens) (UniProt Q13163); assay: Selectivity interaction (KinomeScan (DiscoverX)) EUB0000701a MAP2K5; conditions: at 1 µM
T4 sequence (whole entry): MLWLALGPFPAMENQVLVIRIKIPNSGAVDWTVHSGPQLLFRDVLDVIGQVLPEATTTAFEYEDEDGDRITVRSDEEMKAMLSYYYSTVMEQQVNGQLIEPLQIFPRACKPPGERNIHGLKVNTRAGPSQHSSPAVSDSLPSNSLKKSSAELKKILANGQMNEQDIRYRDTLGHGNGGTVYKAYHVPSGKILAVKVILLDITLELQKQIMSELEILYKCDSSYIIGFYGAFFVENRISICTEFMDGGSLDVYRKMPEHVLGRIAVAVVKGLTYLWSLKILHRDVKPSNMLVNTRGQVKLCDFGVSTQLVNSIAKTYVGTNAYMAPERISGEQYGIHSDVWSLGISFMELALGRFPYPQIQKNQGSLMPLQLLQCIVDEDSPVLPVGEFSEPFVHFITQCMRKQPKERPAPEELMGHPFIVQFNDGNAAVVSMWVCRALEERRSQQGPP

[8] = target: Tyrosine-protein kinase ABL1 (Homo sapiens, UniProt P00519); assay: Selectivity interaction (KinomeScan (DiscoverX)) EUB0000701a ABL1; conditions: at 1 µM
Sequence of Tyrosine-protein kinase ABL1 (P00519 whole entry): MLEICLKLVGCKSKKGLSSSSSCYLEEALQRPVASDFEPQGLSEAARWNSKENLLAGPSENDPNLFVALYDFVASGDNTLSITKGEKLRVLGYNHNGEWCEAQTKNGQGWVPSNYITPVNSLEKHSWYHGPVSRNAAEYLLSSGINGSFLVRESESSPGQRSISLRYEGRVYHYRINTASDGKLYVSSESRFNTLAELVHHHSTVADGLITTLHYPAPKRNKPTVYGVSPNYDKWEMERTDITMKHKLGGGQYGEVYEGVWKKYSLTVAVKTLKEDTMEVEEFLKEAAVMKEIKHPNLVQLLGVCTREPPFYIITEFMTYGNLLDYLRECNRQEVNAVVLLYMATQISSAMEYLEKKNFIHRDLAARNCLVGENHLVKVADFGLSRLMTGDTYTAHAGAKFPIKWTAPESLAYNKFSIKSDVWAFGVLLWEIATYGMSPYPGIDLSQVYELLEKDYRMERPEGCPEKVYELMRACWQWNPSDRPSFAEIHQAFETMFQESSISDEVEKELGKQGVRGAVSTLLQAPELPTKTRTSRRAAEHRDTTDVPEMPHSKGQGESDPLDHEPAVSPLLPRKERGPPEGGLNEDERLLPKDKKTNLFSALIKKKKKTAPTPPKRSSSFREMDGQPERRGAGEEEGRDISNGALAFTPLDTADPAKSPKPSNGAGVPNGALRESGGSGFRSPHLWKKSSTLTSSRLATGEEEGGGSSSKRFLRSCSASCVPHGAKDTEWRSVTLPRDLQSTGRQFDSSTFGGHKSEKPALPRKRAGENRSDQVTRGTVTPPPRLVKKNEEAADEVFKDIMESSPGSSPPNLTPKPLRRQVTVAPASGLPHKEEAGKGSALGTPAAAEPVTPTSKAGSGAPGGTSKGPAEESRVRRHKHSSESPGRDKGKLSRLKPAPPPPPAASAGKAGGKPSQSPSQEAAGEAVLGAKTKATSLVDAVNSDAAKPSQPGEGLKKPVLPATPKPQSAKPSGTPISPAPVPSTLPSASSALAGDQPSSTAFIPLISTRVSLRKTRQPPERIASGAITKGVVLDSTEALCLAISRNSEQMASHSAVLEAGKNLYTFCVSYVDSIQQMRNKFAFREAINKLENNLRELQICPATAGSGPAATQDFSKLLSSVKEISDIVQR

[9] = tested on: T5, Receptor-type tyrosine-protein kinase FLT3 (Homo sapiens), P36888 [D835V]; assay: (§1) Selectivity interaction (KinomeScan (DiscoverX)) EUB0000701a FLT3; conditions: at 1 µM
T5 sequence (whole entry): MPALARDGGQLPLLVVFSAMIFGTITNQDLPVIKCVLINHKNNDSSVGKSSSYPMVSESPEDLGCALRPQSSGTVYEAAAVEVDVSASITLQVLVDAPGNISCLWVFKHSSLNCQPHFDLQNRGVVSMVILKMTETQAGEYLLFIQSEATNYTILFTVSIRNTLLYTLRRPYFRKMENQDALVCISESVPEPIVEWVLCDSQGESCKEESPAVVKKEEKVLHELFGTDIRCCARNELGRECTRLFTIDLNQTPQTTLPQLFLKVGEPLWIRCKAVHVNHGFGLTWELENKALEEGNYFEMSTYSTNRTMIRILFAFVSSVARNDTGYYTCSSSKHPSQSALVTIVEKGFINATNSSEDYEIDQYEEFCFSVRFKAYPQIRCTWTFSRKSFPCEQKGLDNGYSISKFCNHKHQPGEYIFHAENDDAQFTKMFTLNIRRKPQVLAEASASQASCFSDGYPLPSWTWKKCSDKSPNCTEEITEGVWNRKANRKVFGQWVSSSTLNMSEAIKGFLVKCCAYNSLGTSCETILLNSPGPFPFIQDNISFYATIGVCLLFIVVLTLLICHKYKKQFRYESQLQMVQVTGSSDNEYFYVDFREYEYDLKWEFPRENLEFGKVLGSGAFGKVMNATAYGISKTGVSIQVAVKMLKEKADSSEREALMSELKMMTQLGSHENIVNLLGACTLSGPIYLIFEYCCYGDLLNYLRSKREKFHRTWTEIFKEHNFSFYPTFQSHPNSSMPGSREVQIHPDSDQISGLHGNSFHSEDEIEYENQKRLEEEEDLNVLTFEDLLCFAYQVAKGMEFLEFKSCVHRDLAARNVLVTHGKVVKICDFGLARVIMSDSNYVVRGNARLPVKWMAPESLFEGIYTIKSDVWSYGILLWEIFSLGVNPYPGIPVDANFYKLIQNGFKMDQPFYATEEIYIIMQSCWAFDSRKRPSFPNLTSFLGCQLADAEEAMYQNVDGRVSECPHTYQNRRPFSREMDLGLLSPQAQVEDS

[10] = tested on: Receptor-type tyrosine-protein kinase FLT3 (Homo sapiens), P36888 [UNDEFINED MUTATION]; assay: as §1; conditions: at 1 µM
[11] = target: Inhibitor of nuclear factor kappa-B kinase subunit epsilon (Homo sapiens) (UniProt Q14164); conditions: at 1 µM
[12] = target: Mitogen-activated protein kinase kinase kinase kinase 2 (Homo sapiens) (UniProt Q12851); conditions: at 1 µM
[13] = target: Hepatocyte growth factor receptor (Homo sapiens) (UniProt P08581); conditions: at 1 µM
[14] = target: T4, Dual specificity mitogen-activated protein kinase kinase 5 (Homo sapiens); assay: Selectivity interaction (ScanMAX (DiscoverX)) EUB0000700a MAP2K5; conditions: at 10 µM
[15] = target: Epidermal growth factor receptor (Homo sapiens, UniProt P00533); assay: Selectivity interaction (KinomeScan (DiscoverX)) EUB0000709a EGFR; conditions: at 100 nM
Sequence of Epidermal growth factor receptor (P00533 whole entry, canonical isoform): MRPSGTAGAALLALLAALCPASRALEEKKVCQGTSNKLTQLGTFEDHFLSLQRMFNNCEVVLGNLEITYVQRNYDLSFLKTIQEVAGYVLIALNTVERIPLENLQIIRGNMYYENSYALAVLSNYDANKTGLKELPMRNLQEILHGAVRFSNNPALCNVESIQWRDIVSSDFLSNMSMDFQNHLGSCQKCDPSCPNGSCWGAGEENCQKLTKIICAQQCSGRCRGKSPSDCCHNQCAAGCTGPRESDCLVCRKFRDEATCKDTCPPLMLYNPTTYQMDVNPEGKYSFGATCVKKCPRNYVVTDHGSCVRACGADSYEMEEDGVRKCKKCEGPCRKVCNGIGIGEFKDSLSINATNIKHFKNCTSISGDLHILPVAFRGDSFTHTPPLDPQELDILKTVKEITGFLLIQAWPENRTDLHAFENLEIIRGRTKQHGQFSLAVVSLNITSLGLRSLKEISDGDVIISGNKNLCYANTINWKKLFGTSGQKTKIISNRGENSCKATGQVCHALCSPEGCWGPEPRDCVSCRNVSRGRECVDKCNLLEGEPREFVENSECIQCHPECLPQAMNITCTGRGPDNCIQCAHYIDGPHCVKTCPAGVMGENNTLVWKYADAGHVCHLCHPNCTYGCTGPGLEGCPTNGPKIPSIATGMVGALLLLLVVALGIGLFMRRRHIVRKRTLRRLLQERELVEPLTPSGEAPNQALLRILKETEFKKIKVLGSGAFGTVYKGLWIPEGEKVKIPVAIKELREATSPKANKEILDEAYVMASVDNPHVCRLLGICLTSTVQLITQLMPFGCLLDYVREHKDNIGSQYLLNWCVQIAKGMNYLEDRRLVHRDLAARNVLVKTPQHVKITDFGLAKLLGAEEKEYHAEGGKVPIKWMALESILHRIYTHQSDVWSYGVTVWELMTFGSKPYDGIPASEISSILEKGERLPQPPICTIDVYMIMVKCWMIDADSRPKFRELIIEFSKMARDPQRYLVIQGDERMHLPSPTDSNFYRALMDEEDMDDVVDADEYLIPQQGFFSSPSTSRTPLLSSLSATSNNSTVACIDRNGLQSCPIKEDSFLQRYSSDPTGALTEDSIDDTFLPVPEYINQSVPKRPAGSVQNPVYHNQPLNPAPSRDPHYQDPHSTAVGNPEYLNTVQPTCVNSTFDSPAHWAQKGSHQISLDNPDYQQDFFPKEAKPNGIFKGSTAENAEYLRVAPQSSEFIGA

[16] = target: T6, Phosphatidylinositol 4,5-bisphosphate 3-kinase catalytic subunit delta isoform (Homo sapiens) (UniProt O00329); assay: Selectivity interaction (KinomeScan (DiscoverX)) EUB0000709a PIK3CD; conditions: at 100 nM
T6 sequence (whole entry): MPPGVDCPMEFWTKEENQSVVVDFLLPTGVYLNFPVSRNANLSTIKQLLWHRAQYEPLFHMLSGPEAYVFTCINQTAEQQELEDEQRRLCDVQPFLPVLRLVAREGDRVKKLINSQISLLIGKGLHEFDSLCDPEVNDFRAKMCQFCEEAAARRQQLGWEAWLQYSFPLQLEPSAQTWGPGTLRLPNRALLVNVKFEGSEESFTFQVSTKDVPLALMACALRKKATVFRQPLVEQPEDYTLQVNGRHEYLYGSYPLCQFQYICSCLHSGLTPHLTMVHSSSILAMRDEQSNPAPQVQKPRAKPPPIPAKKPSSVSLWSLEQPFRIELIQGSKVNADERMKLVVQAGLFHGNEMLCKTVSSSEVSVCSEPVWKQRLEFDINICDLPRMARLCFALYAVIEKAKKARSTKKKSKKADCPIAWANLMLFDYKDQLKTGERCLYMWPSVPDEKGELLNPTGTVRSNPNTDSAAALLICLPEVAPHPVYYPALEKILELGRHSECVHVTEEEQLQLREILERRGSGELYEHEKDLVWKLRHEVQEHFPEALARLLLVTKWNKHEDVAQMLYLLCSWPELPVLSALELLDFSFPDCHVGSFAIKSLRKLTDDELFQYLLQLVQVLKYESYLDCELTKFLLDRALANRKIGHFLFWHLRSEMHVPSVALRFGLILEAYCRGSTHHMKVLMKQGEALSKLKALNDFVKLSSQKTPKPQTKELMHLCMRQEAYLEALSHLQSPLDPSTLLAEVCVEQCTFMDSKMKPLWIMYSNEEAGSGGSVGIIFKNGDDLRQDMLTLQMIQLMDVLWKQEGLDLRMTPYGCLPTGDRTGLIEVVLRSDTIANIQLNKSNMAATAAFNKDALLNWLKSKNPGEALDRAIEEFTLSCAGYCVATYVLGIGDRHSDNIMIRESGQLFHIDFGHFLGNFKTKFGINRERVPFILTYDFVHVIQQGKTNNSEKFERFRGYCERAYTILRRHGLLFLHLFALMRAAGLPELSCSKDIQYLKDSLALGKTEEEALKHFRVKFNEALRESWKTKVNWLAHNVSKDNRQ

[17] = target: cAMP-dependent protein kinase catalytic subunit alpha (Homo sapiens, UniProt P17612); assay: Selectivity interaction (KinomeScan (DiscoverX)) EUB0000709a PRKACA; conditions: at 100 nM

In the case of `COc1cc(-c2cn(C)c(=O)c3cnccc23)c(OC)cc1CN(C)C`, the dTm [1] is reported as 6.47 K, the dTm [2] is reported as 9.21 K and the dTm [3] is reported as 5.61 K. It also gave a % of control [4] of 0%, a % of control (CREB-binding protein) of 7.2% and a % of control [5] of 8.4%.

In the case of `CN(C)c1ncnc(-c2ccc3nc(Nc4cc(CN5CCN(C(=O)CC(F)(F)F)CC5)ccn4)[nH]c3c2)c1Cl`, the % of control [6] is reported as 15%, the % of control [7] is reported as 1.8% and the % of control [8] is reported as 4.2%. For the same compound, the % of control [9] was 7%, the % of control [10] was 15% and the % of control [11] was 13%.

Compound `C[C@]1(O)C[C@@H](c2nc(-c3ccc4ccc(-c5ccccc5)nc4c3)c3c(N)nccn32)C1` has a % of inhibition [12] of 99% and a % of inhibition [13] of 86%.

Work on `C[C@H](NC(=O)Nc1cc2[nH]ncc2c(CO)n1)c1ccccn1` yielded a % of control [14] of 17.6%.

In the case of `Cn1cc(Cl)c2c(Oc3c(F)cc(Nc4cc(Cl)nc(N)n4)cc3F)ccnc21`, the % of control [15] is reported as 52%, the % of control [16] is reported as 51% and the % of control [17] is reported as 28%.
